{
  "source": "paper PMC10043345",
  "about": "“Discovery of BAR502, as potent steroidal antagonist of leukemia inhibitory factor receptor for the treatment of pancreatic adenocarcinoma” (Frontiers in Oncology, 2023)",
  "key": {"MIA PaCa-2 cells": {"test_system": "MIA PaCa-2 cells", "test": "Ki-67/7-AAD IC-FACS cell cycle analysis", "assay_type": "cell-based, human", "method": "MIA-PaCa2 cells were seeded in 6-well tissue culture plate (cell density 700 × 10^3/well) and cultured as specified above. Cells were serum-starved for 8 h and then incubated with LIF (10 ng/mL) alone or plus BAR502 (10, 20 µM) or a vehicle for 24 h. The intracellular flow cytometry staining for Ki-67 was performed using the following reagents: Ki-67 Monoclonal Antibody (SolA15), Alexa Fluor™ 488, (eBioscience™, San Diego, California, USA) and 7-AAD to characterize the cell cycle phases G0-G1 and S-G2-M. Before intracellular IC-FACS, staining cells were fixed for 30 min in the dark using IC Fixation buffer (eBioscience™) and then permeabilized using Permeabilization buffer (10X) (eBioscience™). The staining for Annexin V was performed using the Annexin V Antibody (A13199, Thermofisher Scientific, Waltham, MA, USA) to evaluate the apoptosis rate. Briefly, 5 μL of Annexin V Antibody was added to each 100 μL of cell suspension, and cells were incubated the at room temperature for 15 min. Flow cytometry analyses were carried out using a 3-laser standard configuration ATTUNE NxT (LIFe Technologies, Carlsbad, CA, USA). Data were analyzed using FlowJo software (TreeStar) and the gates set using a fluorescence minus-one (FMO) control strategy. […] The channel in which the conjugated Ab is missing is the one for which the fluorescence minus one provides a gating control."}, "hLIFR": {"molecular_target": "T1, hLIFR (Homo sapiens, UniProt P42702)", "T1 sequence (P42702 45-1097)": "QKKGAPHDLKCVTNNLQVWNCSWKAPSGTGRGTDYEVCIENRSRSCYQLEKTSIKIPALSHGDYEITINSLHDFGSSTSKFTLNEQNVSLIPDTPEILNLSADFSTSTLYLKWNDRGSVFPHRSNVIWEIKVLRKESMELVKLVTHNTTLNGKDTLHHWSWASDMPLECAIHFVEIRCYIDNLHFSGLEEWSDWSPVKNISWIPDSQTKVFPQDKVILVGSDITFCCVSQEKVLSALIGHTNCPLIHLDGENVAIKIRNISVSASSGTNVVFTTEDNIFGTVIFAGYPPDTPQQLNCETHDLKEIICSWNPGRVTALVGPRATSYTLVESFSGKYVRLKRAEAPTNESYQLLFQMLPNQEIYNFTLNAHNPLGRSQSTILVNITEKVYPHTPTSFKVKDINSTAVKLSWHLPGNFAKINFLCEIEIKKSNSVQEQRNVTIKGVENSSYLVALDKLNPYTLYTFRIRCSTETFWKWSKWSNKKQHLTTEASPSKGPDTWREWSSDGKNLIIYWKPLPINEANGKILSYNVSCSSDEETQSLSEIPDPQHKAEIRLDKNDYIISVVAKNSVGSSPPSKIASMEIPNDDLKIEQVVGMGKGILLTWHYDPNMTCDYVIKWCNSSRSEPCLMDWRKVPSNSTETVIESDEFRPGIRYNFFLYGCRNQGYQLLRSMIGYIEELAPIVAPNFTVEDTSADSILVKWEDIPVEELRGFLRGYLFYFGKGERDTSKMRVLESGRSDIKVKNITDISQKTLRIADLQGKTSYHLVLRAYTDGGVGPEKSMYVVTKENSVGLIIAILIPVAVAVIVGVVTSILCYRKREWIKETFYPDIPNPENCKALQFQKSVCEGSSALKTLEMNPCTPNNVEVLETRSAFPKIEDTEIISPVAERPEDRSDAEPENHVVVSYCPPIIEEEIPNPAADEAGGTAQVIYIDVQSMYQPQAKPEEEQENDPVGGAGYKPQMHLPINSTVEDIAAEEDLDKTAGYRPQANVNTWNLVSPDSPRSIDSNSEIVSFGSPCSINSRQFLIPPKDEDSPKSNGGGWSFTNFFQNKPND", "test": "STAT3 transactivation in HepG2 cells transfected with hLIFR and CD130, stimulated with LIF", "assay_type": "cell-based", "conditions": "LIF 10 ng/mL, read-out: HepG2 LIFR Antagonism IC50 (STAT3 transactivation)", "method": "On day 0, HepG2 were seeded at 7.5 × 10^4 cells/well in a 24-well plate and maintained at 37°C and 5% CO2 in E-MEM supplemented with 10% FBS, 1% glutamine, and 1% penicillin/streptomycin. On day 1, cells were transiently transfected with the reporter plasmid pGL4.47[luc2P/SIE/Hygro] (200 ng) (CAT#: E4041 Promega, Madison, WI, USA), a vector encoding the hLIFR (CAT# RC226327) (100 ng) and CD130 (IL6ST) (100 ng) (CAT#: RC215123, OriGene Technologies, Inc. Rockville, MD, USA), and finally a vector encoding the human RENILLA luciferase gene (pGL4.70) (100 ng) (Promega, Madison, WI, USA). On day 2, cells were exposed to the cytokine LIF (10 ng/mL) alone or in combination with BAR502 (from 0.1 to 20 μM). […] For FXR mediated transactivation, HepG2 cells were plated at 7.5 × 10^4 cells/well in a 24 well plate. Cells were transfected with 200 ng of the reporter vector p(hsp27)-TK-LUC containing a FXR response element (IR1) cloned from the promoter of heat shock protein 27 (hsp27), 100 ng of pSG5-FXR, 100 ng of pSG5-RXR, and 100 ng of pGL4.70 (Promega), a vector encoding the human Renilla gene. To perform STAT3 transactivation, HepG2 were seeded at 7.5× 10^4 cells/well in a 24-well plate. On the day-1, cells were transiently transfected with 200 ng of the reporter plasmid pGL4.47[luc2P/SIE/Hygro] […] Luminescence was measured using a Glomax 20/20 luminometer (Promega, Madison, WI, USA). […]"}},
  "data": [
    {"smiles": "CC[C@H]1[C@@H](O)C2C3CC[C@H]([C@H](C)CCO)[C@@]3(C)CCC2[C@@]2(C)CC[C@@H](O)C[C@@H]12", "note": "(stereo partly drawn) [BAR502]", "values": [
      {"measurement": "effect on LIF-increased S-G2-M transition", "setting": "MIA PaCa-2 cells; BAR502 10-20 μM + LIF 10 ng/mL", "result": "significantly reversed"},
      {"measurement": "effect on LIF-induced increase of Ki-67 positive cells", "setting": "MIA PaCa-2 cells; LIF 10 ng/mL + BAR502", "result": "reversed"},
      {"measurement": "IC50", "setting": "hLIFR", "result": 2730, "unit": "nM"}
    ]}
  ]
}
